Experimental data as given in ChEMBL document CHEMBL1145622, “2-Aminomethyl piperidines as novel urotensin-II receptor antagonists” (Bioorg Med Chem Lett, 2008).

Assays:
Urotensin-2 receptor [1] = biological target: T1, Urotensin-2 receptor (Homo sapiens, UniProt Q9UKP6); assay: Displacement of [125I]human urotensin 2 from human recombinant urotensin 2 receptor expressed in HEK293 cells; assay type: cell-based
T1 sequence (Q9UKP6 whole entry): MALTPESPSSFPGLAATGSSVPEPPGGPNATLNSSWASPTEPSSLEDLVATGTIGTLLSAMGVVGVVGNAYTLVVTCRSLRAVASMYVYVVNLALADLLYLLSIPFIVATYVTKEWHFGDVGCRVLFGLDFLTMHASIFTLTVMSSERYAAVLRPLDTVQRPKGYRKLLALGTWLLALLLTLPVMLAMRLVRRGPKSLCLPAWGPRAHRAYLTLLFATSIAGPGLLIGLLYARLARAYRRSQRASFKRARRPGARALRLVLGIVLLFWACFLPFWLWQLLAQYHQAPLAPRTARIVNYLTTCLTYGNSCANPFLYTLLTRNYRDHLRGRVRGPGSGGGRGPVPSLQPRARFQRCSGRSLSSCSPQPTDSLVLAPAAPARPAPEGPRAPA

Urotensin-2 receptor [2] = biological target: T1, Urotensin-2 receptor; assay: Inhibition of human recombinant urotensin 2 receptor-mediated calcium mobilization expressed in HEK293 cells by FLIPR assay; assay type: functional, cell-based
[3] = Displacement of [125I]human urotensin 2 from cat urotensin 2 receptor; design: species or system Felis catus
Urotensin-2 receptor [4] = biological target: T2, Urotensin-2 receptor (Rattus norvegicus, UniProt P49684); assay: Displacement of [125I]human urotensin 2 from rat urotensin 2 receptor
T2 sequence (P49684 whole entry): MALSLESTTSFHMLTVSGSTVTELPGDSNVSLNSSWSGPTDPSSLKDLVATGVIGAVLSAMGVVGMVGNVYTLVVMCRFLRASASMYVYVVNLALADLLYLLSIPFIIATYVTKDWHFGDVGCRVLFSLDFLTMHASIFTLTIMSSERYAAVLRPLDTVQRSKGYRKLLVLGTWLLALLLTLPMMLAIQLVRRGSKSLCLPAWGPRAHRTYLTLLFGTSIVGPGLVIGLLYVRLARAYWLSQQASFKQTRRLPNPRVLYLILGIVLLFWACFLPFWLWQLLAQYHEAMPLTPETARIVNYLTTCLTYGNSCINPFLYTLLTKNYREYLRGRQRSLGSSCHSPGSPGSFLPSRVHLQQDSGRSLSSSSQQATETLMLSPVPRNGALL

Urotensin-2 receptor [5] = biological target: T1, Urotensin-2 receptor; assay: Antagonist activity at human urotensin 2 receptor; assay type: functional; conditions: read-out: pA2 (converted)
Aorta = assay: Blockade of human urotensin 2-induced contraction in rat isolated aorta; assay type: functional
[6] = Blockade of human urotensin 2-induced contraction in cat isolated femoral artery; assay type: functional, Felis catus
Cytochrome P450 2D6 = Cytochrome P450 2D6 (Homo sapiens, UniProt P10635); assay: Inhibition of CYP2D6; assay type: ADME
Cytochrome P450 2D6, sequence (P10635 whole entry): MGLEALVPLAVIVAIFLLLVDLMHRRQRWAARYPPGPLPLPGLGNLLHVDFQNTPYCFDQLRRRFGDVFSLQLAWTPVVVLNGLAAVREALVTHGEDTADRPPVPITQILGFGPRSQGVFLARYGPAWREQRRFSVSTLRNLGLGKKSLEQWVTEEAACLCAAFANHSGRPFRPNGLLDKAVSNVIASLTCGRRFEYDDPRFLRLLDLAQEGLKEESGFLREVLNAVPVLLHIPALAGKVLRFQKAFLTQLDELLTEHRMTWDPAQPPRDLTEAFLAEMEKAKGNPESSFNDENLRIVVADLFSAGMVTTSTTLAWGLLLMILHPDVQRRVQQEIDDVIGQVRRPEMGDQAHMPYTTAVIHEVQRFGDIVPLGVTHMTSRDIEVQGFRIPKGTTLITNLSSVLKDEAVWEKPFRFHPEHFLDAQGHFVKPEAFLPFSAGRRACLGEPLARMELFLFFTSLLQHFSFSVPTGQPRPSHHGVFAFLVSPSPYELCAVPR

[7] = Bioavailability in rat at 2.2 mg/kg, po; assay type: ADME, organism-based; conditions: in vivo
[8] = Volume of distribution at steady state in rat at 1.2 mg/kg, iv and 2.2 mg/kg, po; assay type: ADME, organism-based; conditions: in vivo, read-out: Vdss
[9] = Half life in rat at 1.2 mg/kg, iv and 2.2 mg/kg, po; assay type: ADME, organism-based; conditions: in vivo
Cytochrome P450 3A4 = Cytochrome P450 3A4 (Homo sapiens, UniProt P08684); assay: Inhibition of CYP3A4; assay type: ADME
Cytochrome P450 3A4, sequence (P08684 whole entry): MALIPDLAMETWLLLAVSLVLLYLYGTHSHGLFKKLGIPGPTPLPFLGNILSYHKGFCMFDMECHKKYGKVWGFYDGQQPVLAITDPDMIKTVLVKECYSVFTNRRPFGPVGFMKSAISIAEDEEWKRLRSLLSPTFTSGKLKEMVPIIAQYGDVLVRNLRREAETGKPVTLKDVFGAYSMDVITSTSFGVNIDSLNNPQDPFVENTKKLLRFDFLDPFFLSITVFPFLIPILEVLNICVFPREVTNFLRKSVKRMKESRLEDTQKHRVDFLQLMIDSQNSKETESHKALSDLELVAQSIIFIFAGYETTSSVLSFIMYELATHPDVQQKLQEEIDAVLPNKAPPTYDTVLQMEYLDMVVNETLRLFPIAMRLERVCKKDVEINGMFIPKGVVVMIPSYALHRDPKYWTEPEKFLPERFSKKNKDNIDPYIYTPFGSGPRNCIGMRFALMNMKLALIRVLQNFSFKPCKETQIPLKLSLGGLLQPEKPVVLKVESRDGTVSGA

[10] = Clearance in rat at 1.2 mg/kg, iv and 2.2 mg/kg, po; assay type: ADME, organism-based; conditions: in vivo

| SMILES | Ki (Urotensin-2 receptor [1]) [nM] | further results |
| --- | --- | --- |
| CN(CC(=O)N1CCC[C@H](c2ccccc2)[C@@H]1CN1CCCC1)Cc1ccc(Cl)c(Cl)c1 | 3980 |  |
| COc1cccc(N(C)CC(=O)N2CCC[C@H](c3ccccc3)[C@@H]2CN2CCCC2)c1 | 794 |  |
| Cc1cccc(N(C)CC(=O)N2CCC[C@H](c3ccccc3)[C@@H]2CN2CCCC2)c1 | 398 |  |
| CN(CC(=O)N1CCC[C@@H](c2ccccc2)[C@H]1CN1CCCC1)c1ccc(Cl)c(Cl)c1 | 1580 |  |
| CN(CC(=O)N1CCCCC1CN1CCCC1)c1ccc(Cl)c(Cl)c1 (stereo unspecified) | 398 | IC50 (Urotensin-2 receptor [2]): 631 nM |
| O=C(Cc1csc2ccc(Cl)cc12)N1CCCCC1CN1CCCC1 (stereo unspecified) | 501 |  |
| O=C(Cc1csc2ccc(Cl)cc12)N1CCCCC1CN1CCCCC1 (stereo unspecified) | 7940 |  |
| O=C(Cc1c[nH]c2ccc(Br)cc12)N1CCC[C@H](c2ccccc2)[C@@H]1CN1CCCC1 | 631 |  |
| Cc1ccc2scc(CC(=O)N3CCC[C@H](c4ccccc4)[C@@H]3CN3CCCC3)c2c1 | 15.8 |  |
| CC(=O)N(CC(=O)N1CCC[C@H](c2ccccc2)[C@@H]1CN1CCCC1)c1ccc(Cl)c(Cl)c1 | 1580 |  |
| CCN(CC(=O)N1CCC[C@H](c2ccccc2)[C@@H]1CN1CCCC1)c1ccc(Cl)c(Cl)c1 | 31.6 |  |
| CN(CC(=O)N1CCC[C@H](c2ccccc2)[C@@H]1CN1CCCC1)c1cccc(Cl)c1 | 79.4 |  |
| CS(=O)(=O)N(CC(=O)N1CCC[C@H](c2ccccc2)[C@@H]1CN1CCCC1)c1ccc(Cl)c(Cl)c1 | 79.4 |  |
| O=C(CN(CC1CC1)c1ccc(Cl)c(Cl)c1)N1CCC[C@H](c2ccccc2)[C@@H]1CN1CCCC1 | 50.1 |  |
| Cc1ccc(N(C)CC(=O)N2CCC[C@H](c3ccccc3)[C@@H]2CN2CCCC2)cc1C | 200 |  |
| CN(CC(=O)N1CCC[C@H](c2ccccc2)[C@@H]1CN1CCCC1)c1cccc(C(F)(F)F)c1 | 100 |  |
| CN(CC(=O)N1CCC[C@H](c2ccccc2)[C@@H]1CN1CCCC1)c1ccc(Cl)cc1 | 501 |  |
| O=C(Cc1ccc2ccccc2c1)N1CCC[C@H](c2ccccc2)[C@@H]1CN1CCCC1 | 7940 |  |
| O=C(CNc1ccc(Cl)c(Cl)c1)N1CCC[C@H](c2ccccc2)[C@@H]1CN1CCCC1 | 63.1 |  |
| O=C(Cc1csc2ccc(Cl)cc12)N1CCC[C@@H](c2ccccc2)[C@H]1CN1CCCC1 | 1000 |  |
| O=C(Cc1csc2ccc(Cl)cc12)N1CCOCC1CN1CCCC1 (stereo unspecified) | 794 |  |
| O=C(Cc1csc2ccccc12)N1CCC[C@H](c2ccccc2)[C@@H]1CN1CCCC1 | 251 |  |
| O=C(Cc1csc2ccc(Cl)cc12)N1CCCCCC1CN1CCCC1 (stereo unspecified) | 2000 |  |

| SMILES | Ki (Urotensin-2 receptor [1]) [nM] | further results |
| --- | --- | --- |
| CN1CCN(CC2CCCCN2C(=O)Cc2csc3ccc(Cl)cc23)CC1 (stereo unspecified) | > 7940 |  |
| O=C(c1cccc2ccccc12)N1CCC[C@H](c2ccccc2)[C@@H]1CN1CCCC1 | > 7940 |  |
| CCN(CC)CC1CCCCN1C(=O)Cc1csc2ccc(Cl)cc12 (stereo unspecified) | > 7940 |  |
| O=C(Cc1ccsc1)N1CCC[C@H](c2ccccc2)[C@@H]1CN1CCCC1 | > 7940 |  |
| O=C(Cc1cccc2ccccc12)N1CCC[C@H](c2ccccc2)[C@@H]1CN1CCCC1 | 79.4 |  |
| O=C(Cc1ccc(Cl)c(Cl)c1)N1CCC[C@H](c2ccccc2)[C@@H]1CN1CCCC1 | 2510 |  |
| O=C(Cc1csc2ccc(Cl)cc12)N1CCCC1CN1CCCC1 (stereo unspecified) | > 7940 |  |
| O=C(Cc1csc2ccc(Br)cc12)N1CCC[C@H](c2ccccc2)[C@@H]1CN1CCCC1 | 7.94 |  |
| O=C(Cc1csc2ccc(Cl)cc12)N1CCC[C@H](c2ccccc2)[C@@H]1CN1CCCC1 | 3.98 | Log Ki [3]: -8; Ki (Urotensin-2 receptor [4]): 10 nM; Kb (Urotensin-2 receptor [5]): 10 nM; pKb (Aorta): 7.7; pKb [6]: 7.2 |
| CN(CC(=O)N1CCC[C@H](c2ccccc2)[C@@H]1CN1CCCC1)c1ccccc1Cl | 794 |  |
| Cc1ccc2scc(CCC(=O)N3CCC[C@H](c4ccccc4)[C@@H]3CN3CCCC3)c2c1 | 3160 |  |
| CN(CC(=O)N1CCC[C@H](c2ccccc2)[C@@H]1CN1CCCC1)c1ccc2ccccc2c1 | 158 |  |
| CN(CC(=O)N1CCC[C@H](c2ccccc2)[C@@H]1CN1CCCC1)c1ccccc1 | 3160 |  |
| O=C(Cc1csc2ccc(Cl)cc12)N1CCCCC1CN1CCOCC1 (stereo unspecified) | 1260 |  |
| CCCO[C@H]1CCCN(C(=O)Cc2csc3ccc(Cl)cc23)[C@H]1CN1CCCC1 (relative stereo) | 31.6 |  |
| O=C(Cc1csc2ccc(Cl)cc12)N1C[C@H](c2ccccc2)CC[C@H]1CN1CCCC1 (relative stereo) | 31.6 |  |
| O=C(Cc1csc2ccc(Cl)cc12)N1CC[C@H](c2ccccc2)C[C@@H]1CN1CCCC1 (relative stereo) | 200 |  |
| O=C(Cc1csc2ccc(Cl)cc12)N1CCC[C@H](C2CCCCC2)[C@@H]1CN1CCCC1 (relative stereo) | 25.1 |  |
| C[C@H]1CCCN(C(=O)Cc2csc3ccc(Cl)cc23)[C@H]1CN1CCCC1 (relative stereo) | 200 |  |
| O=C(Cc1csc2ccc(Cl)cc12)N1CCC[C@H](c2ccccc2)[C@@H]1CN1CCCC1 (relative stereo) | 7.94 |  |
| CN(CC(=O)N1CCC[C@H](c2ccccc2)[C@@H]1CN1CCCC1)c1ccc(Cl)c(Cl)c1 (stereo in doubt; 10b) | 15.8 | IC50 (Cytochrome P450 2D6): 800 nM; bioavailability [7]: 0%; Vd [8]: 23 L/kg; half-life [9]: 3.8 h; IC50 (Cytochrome P450 3A4): 1400 nM; clearance [10]: 97 mL/min/kg |
| CN(CC(=O)N1CCC[C@H](c2ccccc2)[C@@H]1CN1CCCC1)c1ccc(Cl)c(Cl)c1 (stereo in doubt; 11a) | 6.31 | Log Ki [3]: -8.1; Ki (Urotensin-2 receptor [4]): 6.31 nM; pKb (Aorta): 7.9; pKb [6]: 7.2 |
